According to patent US6919372B1, “Sustained release pharmaceutical compositions” (Yamanouchi Pharmaceutical Co., Ltd., priority 1997, dated 2005):
Structures can show the parent of a compound that is named as a salt.

Legend:
Assay type in all cases: physicochemical
[1] = Test 2: octanol/phosphate buffer partition coefficient of BPS with various cations; conditions: for PC of BPS, Equimolar amount: cation added to give equal charge; for PC of BPS, Excess × 20: cation added to give charges 20 times more; for effect of added compound on the partition coefficient of BPS (in words): octanol/phosphate buffer pH 7, compared to no ionic compound added
Experimental: (§1) BPS was dissolved in phosphate buffer solution having pH of 5 to 8 in a concentration of 240 μg/ml. Various cations were added to the mixtures to give equivalent charge to that of BPS or 5 times or 20 times more than that of BPS. The same volume of octanol as that of the aqueous phase was added to the mixture followed by shaking at 37° C. for an hour. After centrifugation, the concentration of the pharmaceutically active substance in the aqueous phase was measured to calculate the partition coefficient.
(§2) partition coefficient=concentration of the pharmaceutically active substance in the octanol phase/concentration of the pharmaceutically active substance in the aqueous phase
A variety of cations were examined with their effect if these cations would affect the partition coefficient of BPS in octanol/phosphate buffer solution (pH 7).
The pharmaceutically active substance was dissolved in an aqueous phase in a concentration of 240 μg/ml. Various cations were added to the solution to give equal charge to that of the pharmaceutically active substance or charges 20 times more than that of the substance. Then the same procedure as in Test 1 was applied to calculate the partition coefficient.

[2] = Test 1: effect of ratio of benzalkonium chloride added and pH on octanol/phosphate buffer partition coefficient of BPS
Experimental: as §1, §2

[3] = Test 3: in vitro release test of gel preparation using various cations; conditions: 10 ml phosphate buffer solution (pH 7.4) at 37° C.
Experimental: Each of the gel preparations obtained in Examples 1 to 9 and Comparative Examples 1 to 3 was evaluated, respectively, with regard to the release of the active substance in 10 ml of a phosphate buffer solution (pH 7.4) at 37° C.

[4] = octanol/phosphate buffer pH 7, 37° C., BPS 240 μg/ml

Row | Molecule | PC of BPS, Equimolar amount [1, 4] | PC of BPS, Excess × 20 [1, 4] | effect of added compound on the partition coefficient of BPS (in words) [1] | also measured
1 | CC#CCC(C)[C@H](O)/C=C/[C@@H]1[C@H]2c3cccc(CCCC(=O)O)c3O[C@H]2C[C@H]1O (relative stereo) [BPS, (±)-(1R*,2R*,3aS*,8bS*)-2,3,3a,8b-tetrahydro-2-hydroxy-1-[(e)-(3S*)-3-hydroxy-4-methyl-1-octen-6-ynyl]-1H-cyclopenta[b]benzofuran-5-butanoic acid, reference compound] | – | – | – | PC of BPS, no cation added ([1]; octanol/phosphate buffer pH 7, 37° C., BPS 240 μg/ml, cation added: None): 16.2; partition coefficient of BPS as the pH increased ([2]; phosphate buffer pH 5 to 8, FIG. 1): decreased as the pH increased
2 | CCCCCCCCCCCCCCCCCCCCCC[N+](C)(C)C.[Cl-] [Behenyltrimethylammonium chloride] | 59.5 | – | – | –
3 | CC(C)(C)CC(C)(C)c1ccc(OCCOCC[N+](C)(C)Cc2ccccc2)cc1 [Benzethonium chloride] | 70.8 | 1180 | – | –
4 | CCCCCCCCCCCCCCCC[N+](C)(C)C.[Cl-] [Cetyltrimethylammonium chloride] | 91.6 | 935 | – | –
5 | CCCCCCCCCCCC[N+](C)(C)Cc1ccccc1.[Cl-] [Lauryldimethylbenzylammonium chloride] | 71.2 | 1220 | – | –
6 | CCCCCCCCCCCC[n+]1ccccc1.[Cl-] [Laurylpyridinium chloride] | 75.0 | 1200 | – | –
7 | CCCCCCCCCCCC[N+](C)(C)C.[Cl-] [Lauryltrimethylammonium chloride] | 83.5 | 985 | increase | –
8 | CCN(CC)CC(=O)Nc1c(C)cccc1C [Lidocaine hydrochloride, reference compound] | 17.1 | 37.5 | – | –
9 | CCCNC(C)(C)COC(=O)c1ccccc1 [Meprylcaine hydrochloride, reference compound] | 17.7 | 53.3 | increase | –
10 | CCCCCCCCCCCCCC[N+](C)(C)Cc1ccccc1.[Cl-] [Myristyldimethylbenzylammonium chloride] | 64.5 | 1210 | – | –
11 | CCCCCCCC[N+](C)(C)Cc1ccccc1.[Cl-] [Octyldimethylbenzylammonium chloride] | 60.9 | 568 | – | –
12 | CC(=O)O.CCCCCCCC/C=C\CCCCCCCCN [Oleylamine acetate] | 30.4 | 473 | – | –
13 | CC(=O)O.CCCCCCCCCCCCCCCCCCN [Stearylamine acetate] | 32.6 | 158 | – | –
14 | CCCCCCCCCCCCCCCCCC[N+](C)(C)Cc1ccccc1.[Cl-] [Stearyldimethylbenzylammonium chloride] | 62.3 | 1350 | – | –
15 | CCCCCCCCCCCCCCCCCC[N+](C)(C)C.[Cl-] [Stearyltrimethylammonium chloride] | 83.4 | 995 | – | –
16 | CCCC[N+](CCCC)(CCCC)Cc1ccccc1.[Cl-] [Tributylbenzylammonium chloride] | 24.5 | 140 | – | –
17 | CC[N+](CC)(CC)Cc1ccccc1.[Cl-] [Triethylbenzylammonium chloride] | – | – | increase | –
18 | Cl.N=C(N)NCCC[C@H](N)C(=O)O [arginine hydrochloride, reference compound] | – | – | no increase | release of the active substance from gel preparation [3]: no delayed release
19 | [Cl-].[Cl-].[Mg+2] [magnesium chloride, reference compound] | – | – | no increase | –
20 | O=S(=O)([O-])[O-].[Mg+2] [magnesium sulfate] | – | – | – | release of the active substance from gel preparation [3]: no delayed release
21 | [Cl-].[Na+] [sodium chloride] | – | – | – | partition coefficient of BPS when sodium chloride was added to make the solution isotonic ([2]; 20 times of equivalent molar ratio of benzalkonium chloride included): decreased
22 | CCCCCCCCCCCCOS(=O)(=O)[O-].[Na+] [sodium lauryl sulfate, reference compound] | – | – | no change | –
23 | protamine sulfate [reference compound] | – | – | did not affect | –
24 | sorbitan sesquioleate [reference compound] | – | – | no change | –
